Experimental data: paper PMC12002301, “Discovery and functional characterization of a bombesin-type neuropeptide signaling system in an invertebrate” (Proceedings of the National Academy of Sciences of the …, 2025)

Legend:
[1] = test system: CHO-K1 cells transfected with empty pcDNA3.1(+) vector; assay: Luminescence control assay, CHO-K1 cells cotransfected with empty pcDNA3.1(+) vector and Gqs5; assay type: cell-based, Chinese hamster; conditions: empty pcDNA3.1(+) vector and Gqs5, words
ArBNR2(G272) = assay: Luminescence (GFP-aequorin Ca2+) assay, CHO-K1 cells coexpressing ArBNR2(G272) and Gqs5; assay type: cell-based, Asterias rubens; conditions: words, up to 10^-5 M
From the text: Having identified ArBN and ArBN5-14 as peptides that are naturally derived from ArBNP in A. rubens, we then sought to identify receptors that these peptides may act as ligands for. BLAST analysis of transcriptome/genome data identified eleven candidate BN-type receptors, which we refer to as ArBNR1-11. Homologs of this family of proteins were also identified in other echinoderms. […] Accordingly, a modified form of ArBNR2 in which the glutamate residue at position 272 is substituted with glycine, ArBNR2(G272), also has seven predicted transmembrane domains (SI Appendix, SI Methods). […]
domains and other structural features (9). The topology of […] of the potential A. rubens BN-type receptors as predicted by Protter V1.0 comprised seven transmembrane domains, as expected for a GPCR. However, the topology of the proteins encoded by contig 1110162 and contig 1110464 comprised only six and four transmembrane domains, respectively. Analysis of the transcript […]
To determine the complete open reading frame of ArBNR2, contig 1110162 was used as a query for blastx analysis of A. rubens genome sequence data on NCBI and accession no. […] The protein (XP_033631283.1 referred to henceforth as ArBNR2) was analysed using […]
Having discovered that MgBNR2 has the expected topology for a GPCR when analysed using both Protter and DeepTMHMM, we then compared its sequence to ArBNR2. […]

Substance	peptide-induced luminescence [1]	peptide-induced luminescence (ArBNR2(G272))
NYNRVFGPTY-NH2 [ArBN5-14, C-terminally amidated 10-residue peptide corresponding to the C-terminal region of ArBN]	did not trigger luminescence	did not trigger luminescence
EPMPSSLALYIANLSP-NH2 [ArBNP65-81, C-terminally amidated 16-residue peptide predicted to be derived from residues 65 to 81 of ArBNP]	did not trigger luminescence	did not trigger luminescence
